Measured values reported in patent US20230374038A1, “MODULATORS OF CYSTIC FIBROSIS TRANSMEMBRANE CONDUCTANCE REGULATOR” (VERTEX PHARMACEUTICALS INCORPORATED, priority 2020, published 2023).

Experiments:
CFTR [1] = biological target: T1, CFTR (Homo sapiens, UniProt P13569); assay: Membrane Potential Dye, Enteroid Assay A; format: cell-based; details: for EC50: read-out: Ent. A EC50
Protocol: Base medium (ADF+++) consisted of Advanced DMEM/Ham's F12, 2 mM Glutamax, 10 mM HEPES, 1 µg/mL penicillin/streptomycin.
Intestinal enteroid maintenance medium (IEMM) consisted of ADF+++, 1× B27 supplement, 1× N2 supplement, 1.25 mM N-acetyl cysteine, 10 mM Nicotinamide, 50 ng/mL hEGF, 10 nM Gastrin, 1 pg/mL hR-spondin-1, 100 ng/mL hNoggin, TGF-b type 1 inhibitor A-83-01, 100 μg/mL Primocin, […] P38 MAPK inhibitor SB202190.
Bath 1 Buffer consisted of 1 mM MgCl2, 160 mM NaCl, 4.5 mM KCl, 10 mM HEPES, 10 mM Glucose, 2 mM CaCl2).
Chloride Free Buffer consisted of 1 mM Magnesium Gluconate, 2 mM Calcium Gluconate, 4.5 mM Potassium Gluconate, 160 mM Sodium Gluconate, 10 mM HEPES, 10 mM Glucose.
Bath1 Dye Solution consisted of Bath 1 Buffer, 0.04% Pluronic F127, […] Methyl Oxonol, 30 μM CaCCinh-A01, 30 μM Chicago Sky Blue.
Chloride Free Dye Solution consisted of Chloride Free Buffer, 0.04% Pluronic F127, 20 μM Methyl Oxonol, 30 μM CaCCinh-A01, 30 μM Chicago Sky Blue.
Chloride Free Dye Stimulation Solution consisted of Chloride Free Dye Solution, 10 μM forskolin, 100 μM IBMX, and 300 nM Compound III.
Human intestinal epithelial enteroid cells were obtained from the Hubrecht Institute for Developmental Biology and Stem Cell Research, Utrecht, The Netherlands and expanded in T-Flasks as previously described (Dekkers J F, Wiegerinck C L, de Jonge H R, Bronsveld I, Janssens H M, de Winter-de Groot K M, Brandsma A M, de Jong N W M, Bijvelds M J C, Scholte B J, Nieuwenhuis E E S, van den Brink S, Clevers H, van der Ent C K, Middendorp S and M Beekman J M. A functional CFTR assay using primary cystic fibrosis intestinal organoids. Nat Med. 2013 July; 19(7):939-45.).
Cells were recovered in cell recovery solution, collected by centrifugation at 650 rpm for 5 min at 4° C., resuspended in TryPLE and incubated for 5 min at 37° C. Cells were then collected by centrifugation at 650 rpm for 5 min at 4° C. and resuspended in IEMM containing 10 μM ROCK inhibitor (RI). The cell suspension was passed through a 40 μm cell strainer and resuspended at 1×10^6 cells/mL in IEMM containing 10 μM RI. Cells were seeded at 5000 cells/well into multi-well plates and incubated for overnight at 37° C., 95% humidity and 5% CO2 prior to assay.
Enteroid cells were incubated with test compound in IEMM for 18-24 hours at 37° C., 95% humidity and 5% CO2. […] Briefly, cells were washed 5 times in Bath 1 Buffer. Bath 1 Dye Solution was added, and the cells were incubated for 25 min at room temperature. Following dye incubation, cells were washed 3 times in Chloride Free Dye Solution. Chloride transport was initiated by addition of Chloride Free Dye Stimulation Solution and the fluorescence signal was read for 15 min. […] Chloride transport was then expressed as a percentage of the chloride transport following treatment with 3 μM (S)—N-((6-aminopyridin-2-yl)sulfonyl)-6-(3-fluoro-5-isobutoxyphenyl)-2-(2,2,4-trimethylpyrrolidin-1-yl)nicotinamide, 3 μM (R)-1-(2,2-difluorobenzo[d][1,3]dioxol-5-yl)-N-(1-(2,3-dihydroxypropyl)-6-fluoro-2-(1-hydroxy-2-methylpropan-2-yl)-1H-indol-5-yl)cyclopropanecarboxamide and 300 nM acute N-[2,4-bis(1,1-dimethylethyl)-5-hydroxyphenyl]-1,4-dihydro-4-oxoquinoline-3-carboxamide triple combination control (% Activity).

CFTR [2] = biological target: T1, CFTR; assay: Membrane Potential Dye, Enteroid Assay B; format: cell-based; details: for EC50: read-out: Ent. B EC50
Method in brief: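 Membrane-potential fluorescence read over 15 min after chloride-free stimulation (forskolin 10 μM, IBMX 100 μM, Compound III 300 nM), with CaCCinh-A01 and Chicago Sky Blue present. Enteroids had 18-24 h compound exposure at 37 °C; activity given as % of the triple-combination corrector/potentiator reference response.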

T1 sequence (P13569 with tags, fused parts or gaps DEL508-508): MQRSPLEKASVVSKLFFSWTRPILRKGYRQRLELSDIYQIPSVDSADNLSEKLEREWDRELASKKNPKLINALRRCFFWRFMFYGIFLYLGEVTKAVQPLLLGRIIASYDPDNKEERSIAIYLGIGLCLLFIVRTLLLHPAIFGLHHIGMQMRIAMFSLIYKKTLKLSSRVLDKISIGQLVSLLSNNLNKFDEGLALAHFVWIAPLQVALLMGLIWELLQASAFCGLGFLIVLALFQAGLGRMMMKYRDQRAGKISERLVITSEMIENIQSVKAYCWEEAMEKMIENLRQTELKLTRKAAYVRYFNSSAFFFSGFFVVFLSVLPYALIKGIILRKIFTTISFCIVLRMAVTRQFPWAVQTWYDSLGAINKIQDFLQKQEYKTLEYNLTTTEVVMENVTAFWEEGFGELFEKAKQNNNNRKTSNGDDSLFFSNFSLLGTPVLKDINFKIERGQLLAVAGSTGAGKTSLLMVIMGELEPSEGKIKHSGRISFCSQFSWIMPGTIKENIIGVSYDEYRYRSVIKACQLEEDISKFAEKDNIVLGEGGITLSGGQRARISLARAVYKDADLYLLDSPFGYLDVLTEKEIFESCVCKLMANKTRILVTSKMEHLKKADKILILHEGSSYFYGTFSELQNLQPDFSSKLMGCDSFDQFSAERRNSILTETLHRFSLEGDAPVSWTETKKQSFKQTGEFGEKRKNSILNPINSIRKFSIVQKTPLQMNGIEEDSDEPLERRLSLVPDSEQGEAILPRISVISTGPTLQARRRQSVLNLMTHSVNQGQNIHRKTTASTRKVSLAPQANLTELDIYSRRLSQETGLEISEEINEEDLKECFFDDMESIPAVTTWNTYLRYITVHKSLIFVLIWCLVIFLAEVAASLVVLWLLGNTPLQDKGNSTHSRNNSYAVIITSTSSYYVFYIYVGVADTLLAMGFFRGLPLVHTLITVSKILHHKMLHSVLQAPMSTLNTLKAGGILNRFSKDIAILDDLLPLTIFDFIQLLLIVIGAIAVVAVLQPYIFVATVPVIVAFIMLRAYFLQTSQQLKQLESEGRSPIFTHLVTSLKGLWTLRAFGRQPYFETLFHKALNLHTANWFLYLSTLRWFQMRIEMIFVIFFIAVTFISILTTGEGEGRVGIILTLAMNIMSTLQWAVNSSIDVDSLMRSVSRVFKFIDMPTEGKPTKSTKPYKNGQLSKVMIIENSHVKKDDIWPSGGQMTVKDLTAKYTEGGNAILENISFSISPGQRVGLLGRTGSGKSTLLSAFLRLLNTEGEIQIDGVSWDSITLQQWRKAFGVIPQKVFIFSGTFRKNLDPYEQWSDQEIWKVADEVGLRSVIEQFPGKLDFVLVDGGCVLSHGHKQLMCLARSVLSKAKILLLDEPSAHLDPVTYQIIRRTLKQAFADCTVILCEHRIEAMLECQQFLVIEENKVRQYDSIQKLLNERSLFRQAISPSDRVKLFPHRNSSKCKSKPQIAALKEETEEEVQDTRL

CC(C)Oc1cccc(-c2nc3nc(c2C(F)(F)F)OC2CN(Cc4ccccc42)C(=O)c2cccc(c2)S(=O)(=O)N3)c1 (stereo not shown) [Compound 42]
Ent. A Max Activity (CFTR [1]): + (+ is <30%)
EC50 (CFTR [1]): < 1000 nM

CCc1c2nc(nc1-c1c(C)cccc1C)NS(=O)(=O)c1cccc(c1)C(=O)N(C1CC3(CCN(C)CC3)C1)[C@H](CC(C)C)CO2 [Compound 159, (11R)-6-(2,6-Dimethylphenyl)-7-ethyl-11-isobutyl-12-(7-methyl-7-azaspiro[3.5]nonan-2-yl)-2,2-dioxo-9-oxa-2λ^6-thia-3,5,12,19-tetrazatricyclo[12.3.1.14,8]nonadeca-1(17),4(19),5,7,14(18),15-hexaen-13-one]
Ent. B Max Activity (CFTR [2]): +++ (+++ is >60%)
EC50 (CFTR [2]): < 1000 nM
Ent. A Max Activity (CFTR [1]): +++ (+++ is >60%)
EC50 (CFTR [1]): < 1000 nM

CCc1c2nc(nc1-c1cccnc1C)NS(=O)(=O)c1cccc(c1)NC(=O)c1cccc(c1)O2 [Compound 7, 4-Ethyl-5-(2-methylpyridin-3-yl)-2-oxa-9λ^6-thia-6,8,15,23-tetraazatetracyclo[15.3.1.13,7.110,14]tricosa-1(21),3,5,7(23),10(22),11,13,17,19-nonaene-9,9,16-trione]
Ent. A Max Activity (CFTR [1]): + (+ is <30%)

CCc1c2nc(nc1-c1c(C)cccc1C)NS(=O)(=O)c1cccc(c1)C(=O)N(C1CC3(CCN(C(=O)OC(C)(C)C)CC3)C1)[C@H](CC(C)C)CO2 [Compound 158, tert-butyl 2-[(11R)-6-(2,6-dimethylphenyl)-7-ethyl-11-isobutyl-2,2,13-trioxo-9-oxa-2λ^6-thia-3,5,12,19-tetrazatricyclo[12.3.1.14,8]nonadeca-1(17),4(19),5,7,14(18),15-hexaen-12-yl]-7-azaspiro[3.5]nonane-7-carboxylate]
Ent. B Max Activity (CFTR [2]): +++ (+++ is >60%)
EC50 (CFTR [2]): < 1000 nM
Ent. A Max Activity (CFTR [1]): +++ (+++ is >60%)
EC50 (CFTR [1]): < 1000 nM

CC(C)(C)c1c2nc(nc1-c1ccccc1)NS(=O)(=O)c1cccc(c1)C(=O)N1Cc3ccccc3C(C1)O2 (stereo not shown) [Compound 46]
Ent. A Max Activity (CFTR [1]): + (+ is <30%)

Cc1cccc(C)c1-c1nc2nc(c1OC(C)C)OC[C@@H](CC(C)C)N(C1CC3(CCN(C(=O)OC(C)(C)C)CC3)C1)C(=O)c1cccc(c1)S(=O)(=O)N2 [Compound 177]
Ent. B Max Activity (CFTR [2]): +++ (+++ is >60%)
EC50 (CFTR [2]): < 1000 nM
Ent. A Max Activity (CFTR [1]): +++ (+++ is >60%)
EC50 (CFTR [1]): < 1000 nM

CCc1c2nc(nc1-c1c(C)cccc1C)NS(=O)(=O)c1cccc(c1)C(=O)NCC(c1ccc(C(C)(C)C)cc1)O2 (stereo not shown) [Compound 178]
Ent. A Max Activity (CFTR [1]): +++ (+++ is >60%)
EC50 (CFTR [1]): < 1000 nM

Cc1ccccc1-c1nc2nc(c1C(C)(C)C)OC1CN(Cc3ccccc31)C(=O)c1cccc(c1)S(=O)(=O)N2 (stereo not shown) [Compound 39, 13-tert-Butyl-12-(o-tolyl)-8,8-dioxo-15-oxa-8λ^6-thia-1,9,11,25-tetrazapentacyclo[14.7.1.13,7.110,14.017,22]hexacosa-3,5,7(26),10(25),11,13,17(22),18,20-nonaen-2-one]
Ent. A Max Activity (CFTR [1]): ++ (++ is 30-60%)
EC50 (CFTR [1]): < 1000 nM

CCc1c2nc(nc1-c1cnccc1C)NS(=O)(=O)c1cccc(c1)NC(=O)c1cccc(c1)O2 [Compound 21]
Ent. A Max Activity (CFTR [1]): + (+ is <30%)

Cc1ncccc1-c1nc2nc(c1C(F)(F)F)OC1CN(Cc3ccccc31)C(=O)c1cccc(c1)S(=O)(=O)N2 (stereo not shown) [Compound 40, 12-(2-Methyl-3-pyridyl)-8,8-dioxo-13-(trifluoromethyl)-15-oxa-8λ^6-thia-1,9,11,25-tetrazapentacyclo[14.7.1.13,7.110,14.017,22]hexacosa-3,5,7(26),10(25),11,13,17(22),18,20-nonaen-2-one]
Ent. A Max Activity (CFTR [1]): + (+ is <30%)

CCc1c2nc(nc1-c1cccnc1OC)NS(=O)(=O)c1cccc(c1)NC(=O)c1cccc(c1)O2 [Compound 20]
Ent. A Max Activity (CFTR [1]): + (+ is <30%)

Cc1ncccc1-c1nc2nc(c1C(C)(C)C)OC1CN(Cc3ccccc31)C(=O)c1cccc(c1)S(=O)(=O)N2 (stereo not shown) [Compound 45]
Ent. A Max Activity (CFTR [1]): + (+ is <30%)

CCc1c2nc(nc1-c1ccccc1)NS(=O)(=O)c1cccc(c1)NC(=O)c1cccc(c1)O2 [Compound 30]
Ent. A Max Activity (CFTR [1]): + (+ is <30%)

CCc1c2nc(nc1-c1cccc(OCC(C)C)c1)NS(=O)(=O)c1cccc(c1)NC(=O)c1cccc(c1)O2 [Compound 27]
Ent. A Max Activity (CFTR [1]): + (+ is <30%)
EC50 (CFTR [1]): < 1000 nM

CCc1c2nc(nc1-c1ccccc1OC)NS(=O)(=O)c1cccc(c1)NC(=O)c1cccc(c1)O2 [Compound 23]
Ent. A Max Activity (CFTR [1]): ++ (++ is 30-60%)
EC50 (CFTR [1]): 3000 to 30000 nM

CCc1c2nc(nc1-c1c(C)cccc1C)NS(=O)(=O)c1cccc(c1)C(=O)N[C@H](CC(C)C)CO2 [Compound 190]
Ent. B Max Activity (CFTR [2]): +++ (+++ is >60%)
EC50 (CFTR [2]): < 1000 nM
Ent. A Max Activity (CFTR [1]): +++ (+++ is >60%)
EC50 (CFTR [1]): < 1000 nM

CC(C)CCc1ccccc1-c1nc2nc(c1C(F)(F)F)OC1CN(Cc3ccccc31)C(=O)c1cccc(c1)S(=O)(=O)N2 (stereo not shown) [Compound 41]
Ent. A Max Activity (CFTR [1]): +++ (+++ is >60%)
EC50 (CFTR [1]): < 1000 nM

Cc1ccccc1-c1nc2nc(c1C(F)(F)F)OC1CN(Cc3ccccc31)C(=O)c1cccc(c1)S(=O)(=O)N2 (stereo not shown) [Compound 43]
Ent. A Max Activity (CFTR [1]): +++ (+++ is >60%)
EC50 (CFTR [1]): < 1000 nM

Cc1cccc(C)c1-c1nc2nc(c1OC(C)C)OC[C@@H](CC(C)C)N(C1CC3(CCN(C)CC3)C1)C(=O)c1cccc(c1)S(=O)(=O)N2 [Compound 176]
Ent. B Max Activity (CFTR [2]): +++ (+++ is >60%)
EC50 (CFTR [2]): < 1000 nM
Ent. A Max Activity (CFTR [1]): +++ (+++ is >60%)
EC50 (CFTR [1]): < 1000 nM

CCc1c2nc(nc1-c1cccc(OC(C)C)c1)NS(=O)(=O)c1cccc(c1)NC(=O)c1cccc(c1)O2 [Compound 28]
Ent. A Max Activity (CFTR [1]): + (+ is <30%)
EC50 (CFTR [1]): 1000 to 3000 nM

CCc1c2nc(nc1-c1c(C)ccc(OCCC(C)C)c1C)NS(=O)(=O)c1cccc(c1)NC(=O)c1cccc(c1)O2 [Compound 9]
Ent. A Max Activity (CFTR [1]): ++ (++ is 30-60%)
EC50 (CFTR [1]): < 1000 nM

CC(C)C[C@@H]1COc2nc(nc(-c3ccccc3C(C)C)c2C(F)(F)F)NS(=O)(=O)c2cccc(c2)C(=O)N1 [Compound 164, (11R)-11-Isobutyl-6-(2-isopropylphenyl)-2,2-dioxo-7-(trifluoromethyl)-9-oxa-2λ^6-thia-3,5,12,19-tetrazatricyclo[12.3.1.14,8]nonadeca-1(18),4,6,8(19),14,16-hexaen-13-one]
Ent. B Max Activity (CFTR [2]): +++ (+++ is >60%)
EC50 (CFTR [2]): < 1000 nM
Ent. A Max Activity (CFTR [1]): +++ (+++ is >60%)
EC50 (CFTR [1]): < 1000 nM

CC(C)Oc1cccc(-c2nc3nc(c2C(C)(C)C)OC2CN(Cc4ccccc42)C(=O)c2cccc(c2)S(=O)(=O)N3)c1 (stereo not shown) [Compound 44]
Ent. A Max Activity (CFTR [1]): + (+ is <30%)

CCc1c2nc(nc1-c1c(C)cccc1OC)NS(=O)(=O)c1cccc(c1)NC(=O)c1cccc(c1)O2 [Compound 6, 4-Ethyl-5-(2-methoxy-6-methylphenyl)-2-oxa-9λ^6-thia-6,8,15,23-tetraazatetracyclo[15.3.1.13,7.110,14]tricosa-1(21),3,5,7(23),10(22),11,13,17,19-nonaene-9,9,16-trione]
Ent. A Max Activity (CFTR [1]): ++ (++ is 30-60%)
EC50 (CFTR [1]): 1000 to 3000 nM

CCc1c2nc(nc1-c1ccncc1C)NS(=O)(=O)c1cccc(c1)NC(=O)c1cccc(c1)O2 [Compound 22]
Ent. A Max Activity (CFTR [1]): + (+ is <30%)

CCOc1ccccc1-c1nc2nc(c1CC)Oc1cccc(c1)C(=O)Nc1cccc(c1)S(=O)(=O)N2 [Compound 24]
Ent. A Max Activity (CFTR [1]): + (+ is <30%)
EC50 (CFTR [1]): 1000 to 3000 nM
